Literature values, collected in patent US20030077758A1, “Myc repressor modulation to treat aging-related disorders” (priority 2000, published 2003).

Molecular target: AP-2 (Homo sapiens, UniProt P05549)
Conditions: in vitro; apparently by oxidizing cysteine residues in the AP-2 DNA binding domain

AP-2, sequence (P05549 whole entry, species assumed, the tested form may be a part): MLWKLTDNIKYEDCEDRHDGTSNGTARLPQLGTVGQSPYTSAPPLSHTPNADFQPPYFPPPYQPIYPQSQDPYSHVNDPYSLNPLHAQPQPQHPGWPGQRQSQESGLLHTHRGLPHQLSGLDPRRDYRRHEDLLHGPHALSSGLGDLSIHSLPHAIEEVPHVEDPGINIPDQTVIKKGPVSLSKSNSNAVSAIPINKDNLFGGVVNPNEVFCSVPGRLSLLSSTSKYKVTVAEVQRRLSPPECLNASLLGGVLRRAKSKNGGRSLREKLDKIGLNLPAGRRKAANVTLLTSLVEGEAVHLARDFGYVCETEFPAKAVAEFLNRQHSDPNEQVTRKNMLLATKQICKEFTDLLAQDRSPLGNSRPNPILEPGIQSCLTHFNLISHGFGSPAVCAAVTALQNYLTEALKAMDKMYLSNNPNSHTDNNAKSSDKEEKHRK

| AP-2 DNA binding activity | SMILES |
| --- | --- |
| inhibited | CN(C)C(=O)/N=N/C(=O)N(C)C [diamide] |
| inhibited | OO [hydrogen peroxide] |
